# Experimental data reported in patent US20240285555A1, “COMPOSITIONS FOR THE TREATMENT OF COPPER DEFICIENCY AND METHODS OF USE” (priority 2018, published 2024).
# Experiments:
# [1] = test system: yeast coa6Δ cells expressing patient mutations (W26C, W33R and E54X); assay: Rescue of yeast coa6Δ cells expressing yeast-human chimeric COA6 with patient mutations; assay type: cell-based, Saccharomyces cerevisiae; details: 10 nM ES
# Source text: Reagents. All the copper binding compounds were purchased from Sigma-Aldrich, except Elesclomol (ES), which was purchased from Selleckchem. The yeast-human hybrid (hyCOA6) gene construct was codon optimized for yeast and synthesized using GENEART® Gene Synthesis (Life Technologies). The hybrid gene hyCOA6 was cloned into pRS416 plasmid under the control of the yeast Coa6 native promoter. COA6 patient mutations were introduced by site-directed-mutagenesis (Agilent Technologies QuikChange Lightning) using hyCOA6 as a template. All the constructs were sequenced verified.
# Yeast Strains and Culture Conditions. The authenticity of yeast strains was confirmed by PCR as well as by replica plating on dropout plates. Yeast cells were cultured in standard YP growth media including YPD (1% yeast extract, 2% peptone and 2% glucose), YPGal (2% galactose), YPGE (3% glycerol+1% ethanol), or synthetic media (SC glucose). […] Growth in liquid media was measured spectrophotometrically at 600 nm.
# (§1) A number of copper-binding pharmacological agents were tested for their ability to rescue respiratory deficient growth of coa6Δ cells. […] To determine the biochemical basis for the observed respiratory rescue of coa6Δ cells, the assembly and activity of CcO-containing mitochondrial respiratory chain supercomplexes was measured by native-polyacrylamide gel electrophoresis blotting and in-gel activity assay, respectively. […]
# [2] = test system: CcO-containing mitochondrial respiratory chain supercomplexes; assay: Assembly and activity of CcO-containing supercomplexes (native PAGE blotting, in-gel activity); assay type: cell-based, Saccharomyces cerevisiae; details: 20 nM ES, YP galactose medium
# Procedure: FIGS. 2A, 2B, 2C, 2D and 2E illustrate elesclomol supplementation rescues CcO assembly defects by restoring mitochondrial copper levels of yeast S. cerevisiae coa6Δ cells. FIGS. 2A-2C illustrate bioenergetic parameters of wild type (WT), coa6Δ, and coa6Δ cells supplemented with 20 nM ES were cultured in YP galactose medium until early stationary growth phase. […] Error bars represent mean±SD (n=3, two-tailed unpaired Student's t-test *p<0.05, **p<0.005).
# (§2) Immunoblotting and In-gel Activities. Sodium dodecyl sulfate polyacrylamide gel electrophoresis (SDS-PAGE) and Blue Native PAGE (BN-PAGE) were performed to separate denatured and native protein complexes, respectively. For SDS-PAGE, mitochondrial lysate ([…]) was separated on NuPAGE 4-12% Bis-Tris gels (Life Technologies, Carlsbad, CA). For BN-PAGE, yeast mitochondria were solubilized in buffer containing 1% digitonin (Life Technologies) by incubating for 15 min at 4° C. […]
# as §1
# yeast ccc2Δ = assay: Respiratory growth rescue of ccc2Δ yeast; assay type: cell-based, Saccharomyces cerevisiae; details: non-fermentable media, 37° C.
# Procedure: Yeast Strains and Culture Conditions. The authenticity of yeast strains was confirmed by PCR as well as by replica plating on dropout plates. Yeast cells were cultured in standard YP growth media including YPD (1% yeast extract, 2% peptone and 2% glucose), YPGal (2% galactose), YPGE (3% glycerol+1% ethanol), or synthetic media (SC glucose). For qualitative growth measurement, 10-fold serial dilutions of overnight cultures were spotted on YPD or YPGE plates and incubated at 30° C. and 37° C. for the indicated period. Growth in liquid media was measured spectrophotometrically at 600 nm.
# ES Rescues Many Different Yeast Mutants with Impaired Copper Metabolism. To test the specificity of ES mediated rescue, a number of yeast mutants of genes required for maintaining cellular and mitochondrial copper homeostasis were shortlisted. Genes were prioritized based on their evolutionary conservation, presence of pathogenic mutations in humans, and/or the existence of a related mouse phenotype (Table 3, shown below). […] Most of the yeast mutants were rescued with ES supplementation, albeit to different degrees, reflecting their distinct roles in cellular and mitochondrial copper homeostasis. […]
# SCO2 patient fibroblasts = assay: Steady state COX2 levels in SCO2 patient fibroblasts; assay type: cell-based, human; details: dose and time dependent
# Procedure: Mammalian Cell Culture. The human control MCH46 and SCO2 patient fibroblasts as well as the rat H9c2 control and Ctr1^−/− cardiomyocytes were cultured in high glucose Dulbecco's modified Eagle's medium (DMEM) supplemented with 10% fetal bovine serum (Sigma) and 1 mM sodium pyruvate (Life Technologies). The mouse embryonic fibroblasts were cultured in DMEM 10% FBS, 1 mM sodium pyruvate, 1× minimum essential medium non-essential amino acids (MEM NEAA; Life Technologies 11140), 50 μg/mL uridine, and 1× Pen Strep Glutamine (Life Technologies 10378). All cell lines were cultured under 5% CO2 at 37° C. and were treated with indicated concentrations of ES for 3-6 days before harvesting. Whole cell protein was extracted in lysis buffer (BP-115, Boston BioProducts) supplemented with protease inhibitor cocktail (Roche Diagnostics) and the protein concentrations were determined by BCA assay (Thermo Scientific).
# as §2
smiles,measurement,setting,value
"CN(NC(=O)CC(=O)NN(C)C(=S)c1ccccc1)C(=S)c1ccccc1 [ES, elesclomol]",rescue of respiratory growth,[1],rescued
same,abundance and activity of CcO-containing supercomplexes,[2],restored the abundance and activity of CcO-containing supercomplexes to near wild type levels
same,rescue of respiratory growth,yeast ccc2Δ,rescue
same,steady state levels of COX2,SCO2 patient fibroblasts,partially rescue
